Patent US10077436B2, “Beta-glucosidase enzymes for increased biomass saccharification” (Edeniq, Inc., priority 2013, dated 2018)

Target: T1, Aspergillus niger beta-glucosidase (CAB75696.1, SEQ ID NO:2) improved variant yEdQ885-BG (Aspergillus niger, UniProt Q9P8F4, Y363C/Y375F/Y610F)
T1 construct: strain yEdQ885, BG acid/base mutant #8
T1 sequence (Q9P8F4 20-860 Y363C/Y375F/Y610F): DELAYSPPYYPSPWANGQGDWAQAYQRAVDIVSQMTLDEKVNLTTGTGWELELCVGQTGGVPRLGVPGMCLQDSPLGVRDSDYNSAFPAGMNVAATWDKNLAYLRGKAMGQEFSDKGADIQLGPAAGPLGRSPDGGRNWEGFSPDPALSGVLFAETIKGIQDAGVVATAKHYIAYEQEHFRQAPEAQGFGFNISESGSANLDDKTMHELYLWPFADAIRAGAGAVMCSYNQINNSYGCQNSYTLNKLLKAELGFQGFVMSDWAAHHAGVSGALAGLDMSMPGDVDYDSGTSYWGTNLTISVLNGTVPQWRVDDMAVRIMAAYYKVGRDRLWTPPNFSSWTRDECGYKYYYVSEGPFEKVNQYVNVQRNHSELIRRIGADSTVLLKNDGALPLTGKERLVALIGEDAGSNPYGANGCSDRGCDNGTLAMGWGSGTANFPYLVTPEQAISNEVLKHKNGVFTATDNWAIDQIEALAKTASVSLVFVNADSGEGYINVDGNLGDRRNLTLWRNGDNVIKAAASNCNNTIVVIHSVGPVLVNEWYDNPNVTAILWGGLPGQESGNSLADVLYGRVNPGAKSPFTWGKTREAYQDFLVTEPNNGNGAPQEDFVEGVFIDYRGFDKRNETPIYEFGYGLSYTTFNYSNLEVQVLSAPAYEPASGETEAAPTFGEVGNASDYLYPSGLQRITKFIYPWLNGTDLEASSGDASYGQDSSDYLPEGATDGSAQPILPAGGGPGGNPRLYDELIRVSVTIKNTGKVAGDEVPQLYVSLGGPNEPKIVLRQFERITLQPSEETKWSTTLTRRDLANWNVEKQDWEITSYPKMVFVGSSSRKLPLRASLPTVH
Assay: BG kinetics, pNPG hydrolysis assay with glucose as competitive inhibitor, yEdQ885-BG
Assay type: biochemical
From the text: The beta-glucosidase (BG) gene from Aspergillus niger (Accession #CAB75696.1) was integrated into the TR3 yeast background at the T4U3 genomic site.
High resolution enzyme assays and kinetic testing comparing the beta-glucosidases described herein and commercial enzyme preparations were pursued to more clearly quantify differences in mutant BG enzymes compared to the wild type BG enzyme. Based on data presented herein, BG mutant YEdQ885 was selected for further analysis and compared to the BG activity present in commercial preparations of SP188 (Novozymes) and Accellerase® BG (DuPont) as well as wild type BG. […]
BG activity assay using pNPG is one of the two commonly used standard assays to measure BG activity, which utilizes hydrolysis of p-nitrophenyl-β-D-glucopyranoside (pNPG) by BG into a yellow colored product, p-nitrophenol (pNP), that has a strong absorbance at 405 nm. […] The reaction was then terminated by adding 100 μL of 0.25 M sodium carbonate, and the amount of pNP produced was determined by measuring absorbance at 405 nm using a predetermined calibration curve. […]
To determine the kinetic properties, a competitive inhibition mechanism was hypothesized as proposed in the literature (Chauve et al, 2010; Krogh et al, 2010). […] The turnover number, Kcat, can be calculated by Equation (2), where [Et] is the total amount of enzyme. […]

In the case of `OC[C@H]1OC(O)[C@H](O)[C@@H](O)[C@@H]1O` (some centres unmarked) [glucose], the Ki is reported as 2190 ± 100 µM and the Km/Ki (inhibitor influence, Km for pNPG / Ki for glucose, pH 5.0, 50° C.) is reported as 0.29.
